Read-outs that look alike come from different tables or passages of the source.

The values below come from US9708318B2, “Bicyclic heterocycles as FGFR4 inhibitors” (Incyte Corporation, priority 2015, dated 2017).

The target of one test is FGFR3 enzyme (Homo sapiens (Human), UniProt P22607). The experiment in a line: FGFR Enzymatic Assay (FRET peptide phosphorylation), FGFR3. Format: biochemical. The conditions noted are these: for FGFR1/FGFR3 IC50 ratio / FGFR4/FGFR3 IC50 ratio: FGFR3 selectivity. As to the method: (§1) The inhibitor potency of the exemplified compounds was measured in an enzyme assay that measures peptide phosphorylation using FRET measurements to detect product formation. Inhibitors were serially diluted in DMSO and a volume of 0.5 μL was transferred to the wells of a 384-well plate.
(§2) GraphPad prism3 was used to analyze the data.

A further test addresses FGFR1 (Homo sapiens (Human), UniProt P11362). Put plainly: FGFR Enzymatic Assay (FRET peptide phosphorylation), FGFR1.
The target of another test is FGFR2 (Homo sapiens (Human), UniProt P21802). The experiment in a line: FGFR Enzymatic Assay (FRET peptide phosphorylation), FGFR2. The format is biochemical. As to the method: as §1
(§3) The enzymes were purchased from Millipore or Invitrogen.
as §2

In another test the target is FGFR4 (Homo sapiens (Human), UniProt P22455). Put plainly: FGFR Enzymatic Assay (FRET peptide phosphorylation), FGFR4. Format: biochemical. On the procedure: as §1, §3, §2
Where [1] appears, read: pre-incubated for 4 hours, read-out: FGFR3 IC50.
Setting [2] is: FGFR1 IC50 (nM), pre-incubated for 4 hours.
The mark [3] stands for this setting: pre-incubated for 5 to 10 minutes, read-out: FGFR3 IC50.
Setting [4] is: FGFR1 IC50 (nM), pre-incubated for 5 to 10 minutes.
Setting [5] is: pre-incubated for 5 to 10 minutes.

Chain of FGFR4 (P22455 22-802): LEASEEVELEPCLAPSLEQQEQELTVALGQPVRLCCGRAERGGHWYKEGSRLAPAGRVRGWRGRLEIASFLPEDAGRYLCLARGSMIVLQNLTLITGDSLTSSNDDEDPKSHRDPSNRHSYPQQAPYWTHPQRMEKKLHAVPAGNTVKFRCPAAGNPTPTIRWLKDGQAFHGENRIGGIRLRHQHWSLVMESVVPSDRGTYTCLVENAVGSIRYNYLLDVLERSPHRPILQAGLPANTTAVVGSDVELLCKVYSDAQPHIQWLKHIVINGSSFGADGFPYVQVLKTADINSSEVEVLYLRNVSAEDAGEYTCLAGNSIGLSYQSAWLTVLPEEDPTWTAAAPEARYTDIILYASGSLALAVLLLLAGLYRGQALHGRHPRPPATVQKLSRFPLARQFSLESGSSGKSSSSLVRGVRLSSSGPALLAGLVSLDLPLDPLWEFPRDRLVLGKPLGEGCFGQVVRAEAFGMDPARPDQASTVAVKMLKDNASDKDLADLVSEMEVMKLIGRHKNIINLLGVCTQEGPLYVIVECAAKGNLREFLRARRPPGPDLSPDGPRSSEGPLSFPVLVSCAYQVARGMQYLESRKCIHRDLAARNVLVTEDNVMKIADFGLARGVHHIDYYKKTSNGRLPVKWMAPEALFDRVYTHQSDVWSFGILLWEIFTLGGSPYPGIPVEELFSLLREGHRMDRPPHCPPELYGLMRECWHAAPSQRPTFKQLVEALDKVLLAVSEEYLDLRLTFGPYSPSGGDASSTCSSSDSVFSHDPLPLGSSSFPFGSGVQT
Chain of FGFR3 enzyme (P22607 23-806): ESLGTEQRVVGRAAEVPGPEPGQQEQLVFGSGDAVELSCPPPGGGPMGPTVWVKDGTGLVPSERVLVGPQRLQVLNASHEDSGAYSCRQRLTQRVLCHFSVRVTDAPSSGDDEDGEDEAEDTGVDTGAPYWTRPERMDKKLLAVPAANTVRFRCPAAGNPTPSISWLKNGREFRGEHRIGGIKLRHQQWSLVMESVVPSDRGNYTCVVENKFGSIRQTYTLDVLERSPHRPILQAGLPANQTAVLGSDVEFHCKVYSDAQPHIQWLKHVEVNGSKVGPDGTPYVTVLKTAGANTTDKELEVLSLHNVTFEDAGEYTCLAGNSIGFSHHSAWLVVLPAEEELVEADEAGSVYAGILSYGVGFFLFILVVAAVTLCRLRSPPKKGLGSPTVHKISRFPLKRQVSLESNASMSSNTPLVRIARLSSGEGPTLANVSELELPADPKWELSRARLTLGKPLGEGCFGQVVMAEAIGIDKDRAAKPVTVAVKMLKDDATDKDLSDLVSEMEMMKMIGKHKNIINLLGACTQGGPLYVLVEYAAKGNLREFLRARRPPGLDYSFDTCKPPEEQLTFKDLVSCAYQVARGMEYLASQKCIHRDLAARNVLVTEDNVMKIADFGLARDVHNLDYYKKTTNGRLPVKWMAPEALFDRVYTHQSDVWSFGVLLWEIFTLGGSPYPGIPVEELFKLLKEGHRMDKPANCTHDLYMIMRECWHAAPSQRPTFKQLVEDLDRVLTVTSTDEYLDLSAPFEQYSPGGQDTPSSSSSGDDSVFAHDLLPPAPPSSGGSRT
Chain of FGFR1 (P11362 22-822): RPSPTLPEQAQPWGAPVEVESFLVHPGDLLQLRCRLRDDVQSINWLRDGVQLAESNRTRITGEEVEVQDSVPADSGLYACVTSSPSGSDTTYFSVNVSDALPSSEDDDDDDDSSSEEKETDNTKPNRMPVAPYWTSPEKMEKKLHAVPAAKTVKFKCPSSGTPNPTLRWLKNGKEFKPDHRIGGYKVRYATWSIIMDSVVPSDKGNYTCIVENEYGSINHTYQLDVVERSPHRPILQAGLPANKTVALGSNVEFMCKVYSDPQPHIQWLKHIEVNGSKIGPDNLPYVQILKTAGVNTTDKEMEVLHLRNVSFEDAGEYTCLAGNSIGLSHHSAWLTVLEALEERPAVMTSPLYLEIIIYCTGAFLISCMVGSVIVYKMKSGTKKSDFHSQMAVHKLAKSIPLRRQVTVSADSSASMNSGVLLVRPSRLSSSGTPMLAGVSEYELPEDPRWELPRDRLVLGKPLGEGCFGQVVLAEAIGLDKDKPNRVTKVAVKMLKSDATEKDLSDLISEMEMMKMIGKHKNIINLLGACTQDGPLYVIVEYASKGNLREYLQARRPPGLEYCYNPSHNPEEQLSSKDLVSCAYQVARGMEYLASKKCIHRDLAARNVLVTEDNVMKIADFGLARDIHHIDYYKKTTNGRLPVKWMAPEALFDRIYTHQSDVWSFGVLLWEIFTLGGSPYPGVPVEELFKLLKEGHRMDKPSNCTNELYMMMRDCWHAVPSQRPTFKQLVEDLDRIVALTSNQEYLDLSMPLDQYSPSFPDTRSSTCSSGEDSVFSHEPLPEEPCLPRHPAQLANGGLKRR
Chain of FGFR2 (P21802 22-821): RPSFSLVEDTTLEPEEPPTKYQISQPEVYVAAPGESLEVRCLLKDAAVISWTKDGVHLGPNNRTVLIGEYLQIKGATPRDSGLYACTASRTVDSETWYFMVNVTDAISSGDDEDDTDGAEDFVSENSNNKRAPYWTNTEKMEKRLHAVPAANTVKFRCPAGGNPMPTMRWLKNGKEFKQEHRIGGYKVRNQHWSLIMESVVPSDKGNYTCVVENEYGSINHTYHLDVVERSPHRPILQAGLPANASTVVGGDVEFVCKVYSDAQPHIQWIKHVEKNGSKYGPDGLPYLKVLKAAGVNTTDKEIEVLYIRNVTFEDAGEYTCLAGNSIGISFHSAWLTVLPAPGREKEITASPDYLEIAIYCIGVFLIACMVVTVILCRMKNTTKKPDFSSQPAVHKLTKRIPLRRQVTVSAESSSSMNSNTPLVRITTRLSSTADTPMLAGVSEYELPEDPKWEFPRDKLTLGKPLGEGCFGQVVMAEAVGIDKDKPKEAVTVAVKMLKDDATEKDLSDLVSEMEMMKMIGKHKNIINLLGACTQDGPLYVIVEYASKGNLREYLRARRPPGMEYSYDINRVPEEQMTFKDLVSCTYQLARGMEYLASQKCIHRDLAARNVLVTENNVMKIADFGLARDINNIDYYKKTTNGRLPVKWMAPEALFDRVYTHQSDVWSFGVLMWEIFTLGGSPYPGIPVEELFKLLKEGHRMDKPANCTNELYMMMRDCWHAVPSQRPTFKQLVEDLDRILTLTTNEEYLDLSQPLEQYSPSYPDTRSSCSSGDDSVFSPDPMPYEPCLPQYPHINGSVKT

Consider `COc1cc(OC)c(F)c(N2Cc3cnc(-c4cn(C)nc4C)cc3N(c3ccc(C(=O)N(C)C)cc3)C2=O)c1F` [Example 113, 4-(3-(2,6-difluoro-3,5-dimethoxyphenyl)-7-(1,3-dimethyl-1H-pyrazol-4-yl)-2-oxo-3,4-dihydropyrido[4,3-d]pyrimidin-1(2H)-yl)-N,N-dimethylbenzamide], for which the “FGFR1/FGFR3 IC50 ratio” value at FGFR3 enzyme (pre-incubated for 4 hours) is reported as greater than 3. Further, the “FGFR4/FGFR3 IC50 ratio” value at FGFR3 enzyme (pre-incubated for 4 hours) is greater than 5. In addition, the IC50 at FGFR3 enzyme (setting [1]) was 0.01 to 0.03 µM; on FGFR1 (setting [2]), 30 to 200 nM; against FGFR2 (pre-incubated for 4 hours) it was less than 0.01 µM; at FGFR4 (pre-incubated for 4 hours), 0.03 to 0.2 µM.
`COc1cc(OC)c(F)c(N2Cc3cnc(-c4cn(C)nc4C)cc3N(c3ccc(-c4nnc(C)o4)cc3)C2=O)c1F` [Example 115, 3-(2,6-difluoro-3,5-dimethoxyphenyl)-7-(1,3-dimethyl-1H-pyrazol-4-yl)-1-(4-(5-methyl-1,3,4-oxadiazol-2-yl)phenyl)-3,4-dihydropyrido[4,3-d]pyrimidin-2(1H)-one]: the “FGFR1/FGFR3 IC50 ratio” value on FGFR3 enzyme (pre-incubated for 4 hours) was greater than 3. Also, the “FGFR4/FGFR3 IC50 ratio” value at FGFR3 enzyme (pre-incubated for 4 hours) is listed as greater than 5. The half-inhibitory concentration (IC50) at FGFR3 enzyme (setting [1]) was less than 0.01 µM; against FGFR1 (setting [2]), 30 to 200 nM; against FGFR2 (pre-incubated for 4 hours), less than 0.01 µM; at FGFR4 (pre-incubated for 4 hours), 0.03 to 0.2 µM.
With `CCOc1cc(CN2C(=O)N(c3c(F)c(OC)cc(OC)c3F)Cc3cnc(-c4cn(C)nc4C)cc32)ccn1` [Example 116, 3-(2,6-difluoro-3,5-dimethoxyphenyl)-7-(1,3-dimethyl-1H-pyrazol-4-yl)-1-((2-ethoxypyridin-4-yl)methyl)-3,4-dihydropyrido[4,3-d]pyrimidin-2(1H)-one], the IC50 is less than 0.01 µM at FGFR3 enzyme (setting [3]), 10 to 30 nM at FGFR1 (setting [4]), less than 0.01 µM against FGFR2 (setting [5]) and 0.01 to 0.03 µM against FGFR4 (setting [5]).
As to `COc1cc(OC)c(F)c(N2Cc3cnc(-c4cn(C)nc4C)cc3N(Cc3ccc4c(c3)nnn4C)C2=O)c1F` [Example 118, 3-(2,6-difluoro-3,5-dimethoxyphenyl)-7-(1,3-dimethyl-1H-pyrazol-4-yl)-1-((1-methyl-1H-benzo[d][1,2,3]triazol-5-yl)methyl)-3,4-dihydropyrido[4,3-d]pyrimidin-2(1H)-one], the IC50 on FGFR3 enzyme (setting [3]) lay in the range of 0.01 to 0.03 µM; at FGFR1 (setting [4]) it was 30 to 200 nM; at FGFR2 (setting [5]) it was 0.01 to 0.03 µM; against FGFR4 (setting [5]), 0.03 to 0.2 µM.
`COc1cc(OC)c(F)c(N2Cc3cnc(-c4cn(C)nc4C)cc3N(c3ccc4c(c3)CC(=O)N4)C2=O)c1F` [Example 119, 3-(2,6-difluoro-3,5-dimethoxyphenyl)-7-(1,3-dimethyl-1H-pyrazol-4-yl)-1-(2-oxoindolin-5-yl)-3,4-dihydropyrido[4,3-d]pyrimidin-2(1H)-one]: the IC50 is less than 0.01 µM on FGFR3 enzyme (setting [3]), 10 to 30 nM at FGFR1 (setting [4]), less than 0.01 µM against FGFR2 (setting [5]) and 0.01 to 0.03 µM on FGFR4 (setting [5]).
With `COc1cc(OC)c(F)c(N2Cc3cnc(-c4cn(C)nc4C)cc3N(Cc3ccnc(C)n3)C2=O)c1F` [Example 121, 3-(2,6-difluoro-3,5-dimethoxyphenyl)-7-(1,3-dimethyl-1H-pyrazol-4-yl)-1-((2-methylpyrimidin-4-yl)methyl)-3,4-dihydropyrido[4,3-d]pyrimidin-2(1H)-one], the half-inhibitory concentration (IC50) was less than 0.01 µM on FGFR3 enzyme (setting [3]), 10 to 30 nM at FGFR1 (setting [4]), less than 0.01 µM on FGFR2 (setting [5]) and 0.03 to 0.2 µM at FGFR4 (setting [5]).
Turning to `COC(=O)N1CCC(N2C(=O)N(c3c(F)c(OC)cc(OC)c3F)Cc3cnc(-c4cn(C)nc4C)cc32)CC1` [Example 122, Methyl 4-(3-(2,6-difluoro-3,5-dimethoxyphenyl)-7-(1,3-dimethyl-1H-pyrazol-4-yl)-2-oxo-3,4-dihydropyrido[4,3-d]pyrimidin-1(2H)-yl)piperidine-1-carboxylate], the IC50 against FGFR3 enzyme lay within 0.01 to 0.03 µM; against FGFR1, 30 to 200 nM; on FGFR2 (pre-incubated for 4 hours) it was 0.01 to 0.03 µM; on FGFR4 (pre-incubated for 4 hours), 0.03 to 0.2 µM. In addition, at FGFR3 enzyme (pre-incubated for 4 hours), the “FGFR1/FGFR3 IC50 ratio” value is recorded as greater than 5. The “FGFR4/FGFR3 IC50 ratio” value on FGFR3 enzyme (pre-incubated for 4 hours) is reported as greater than 5.
For the molecule `COC(=O)Nc1ccc(N2C(=O)N(c3c(F)c(OC)cc(OC)c3F)Cc3cnc(-c4cn(C)nc4C)cc32)cc1` [Example 123, Methyl 4-(3-(2,6-difluoro-3,5-dimethoxyphenyl)-7-(1,3-dimethyl-1H-pyrazol-4-yl)-2-oxo-3,4-dihydropyrido[4,3-d]pyrimidin-1(2H)-yl)phenylcarbamate], the “FGFR1/FGFR3 IC50 ratio” value on FGFR3 enzyme (pre-incubated for 4 hours) is recorded as greater than 5. Moreover, the “FGFR4/FGFR3 IC50 ratio” value at FGFR3 enzyme (pre-incubated for 4 hours) is on record as greater than 3. Further, the IC50 was less than 0.01 µM at FGFR3 enzyme (setting [1]), 30 to 200 nM on FGFR1 (setting [2]), less than 0.01 µM against FGFR2 (pre-incubated for 4 hours) and 0.01 to 0.03 µM at FGFR4 (pre-incubated for 4 hours).
As for `COc1cc(OC)c(F)c(N2Cc3cnc(-c4cn(C)nc4C)cc3N(Cc3cnn(C4CC4)c3)C2=O)c1F` [Example 124, 1-((1-cyclopropyl-1H-pyrazol-4-yl)methyl)-3-(2,6-difluoro-3,5-dimethoxyphenyl)-7-(1,3-dimethyl-1H-pyrazol-4-yl)-3,4-dihydropyrido[4,3-d]pyrimidin-2(1H)-one], the “FGFR1/FGFR3 IC50 ratio” value at FGFR3 enzyme (pre-incubated for 4 hours) is reported as greater than 10. The “FGFR4/FGFR3 IC50 ratio” value on FGFR3 enzyme (pre-incubated for 4 hours) is greater than 10. Besides, the IC50 is less than 0.01 µM on FGFR3 enzyme (setting [1]); less than 10 nM on FGFR1 (read-out: FGFR1 IC50, pre-incubated for 4 hours); less than 0.01 µM against FGFR2 (pre-incubated for 4 hours); less than 0.01 µM against FGFR4 (pre-incubated for 4 hours).
As to `COc1cc(OC)c(F)c(N2Cc3cnc(-c4cn(C)nc4C)cc3N(Cc3cnn(CC#N)c3)C2=O)c1F` [Example 125, 2-(4-((3-(2,6-difluoro-3,5-dimethoxyphenyl)-7-(1,3-dimethyl-1H-pyrazol-4-yl)-2-oxo-3,4-dihydropyrido[4,3-d]pyrimidin-1(2H)-yl)methyl)-1H-pyrazol-1-yl)acetonitrile], the “FGFR1/FGFR3 IC50 ratio” value at FGFR3 enzyme (pre-incubated for 4 hours) was greater than 5. Moreover, the “FGFR4/FGFR3 IC50 ratio” value at FGFR3 enzyme (pre-incubated for 4 hours) is greater than 5. Besides, the IC50 on FGFR3 enzyme (setting [1]) is 0.01 to 0.03 µM; against FGFR1 (setting [2]) it was 30 to 200 nM; against FGFR2 (pre-incubated for 4 hours), less than 0.01 µM; at FGFR4 (pre-incubated for 4 hours) it was 0.03 to 0.2 µM.
In the case of `COc1cc(OC)c(F)c(N2Cc3cnc(-c4cn(C)nc4C)cc3N(Cc3cnn(CC4CC4)c3)C2=O)c1F` [Example 126, 1-((1-(cyclopropylmethyl)-1H-pyrazol-4-yl)methyl)-3-(2,6-difluoro-3,5-dimethoxyphenyl)-7-(1,3-dimethyl-1H-pyrazol-4-yl)-3,4-dihydropyrido[4,3-d]pyrimidin-2(1H)-one], the IC50 at FGFR3 enzyme (setting [3]) was less than 0.01 µM; against FGFR1 (setting [4]), 10 to 30 nM; at FGFR2 (setting [5]) it was less than 0.01 µM; against FGFR4 (setting [5]), 0.03 to 0.2 µM.
`COc1cc(OC)c(F)c(N2Cc3cnc(-c4cn(C)nc4C)cc3N(Cc3cnn(CC4CCCO4)c3)C2=O)c1F` (stereo not shown) [Example 127, 3-(2,6-difluoro-3,5-dimethoxyphenyl)-7-(1,3-dimethyl-1H-pyrazol-4-yl)-1-((1-((tetrahydrofuran-2-yl)methyl)-1H-pyrazol-4-yl)methyl)-3,4-dihydropyrido[4,3-d]pyrimidin-2(1H)-one]: the IC50 was 0.01 to 0.03 µM on FGFR3 enzyme (setting [3]), 30 to 200 nM against FGFR1 (setting [4]), 0.01 to 0.03 µM against FGFR2 (setting [5]) and 0.03 to 0.2 µM on FGFR4 (setting [5]).
For the molecule `COc1cc(OC)c(F)c(N2Cc3cnc(-c4cn(C)nc4C)cc3N(Cc3cnn(CC(F)F)c3)C2=O)c1F` [Example 128, 3-(2,6-difluoro-3,5-dimethoxyphenyl)-1-((1-(2,2-difluoroethyl)-1H-pyrazol-4-yl)methyl)-7-(1,3-dimethyl-1H-pyrazol-4-yl)-3,4-dihydropyrido[4,3-d]pyrimidin-2(1H)-one], the half-inhibitory concentration (IC50) is less than 0.01 µM on FGFR3 enzyme (setting [3]); less than 10 nM on FGFR1 (read-out: FGFR1 IC50, pre-incubated for 5 to 10 minutes); less than 0.01 µM against FGFR2 (setting [5]); 0.01 to 0.03 µM on FGFR4 (setting [5]).
`COc1cc(OC)c(F)c(N2Cc3cnc(-c4cn(C)nc4C)cc3N(c3cn[nH]c3)C2=O)c1F` [Example 129, 3-(2,6-difluoro-3,5-dimethoxyphenyl)-7-(1,3-dimethyl-1H-pyrazol-4-yl)-1-(1H-pyrazol-4-yl)-3,4-dihydropyrido[4,3-d]pyrimidin-2(1H)-one]: the “FGFR1/FGFR3 IC50 ratio” value at FGFR3 enzyme (pre-incubated for 4 hours) is listed as greater than 5. Further, the “FGFR4/FGFR3 IC50 ratio” value at FGFR3 enzyme (pre-incubated for 4 hours) is on record as greater than 10. For the same molecule, the IC50 is less than 0.01 µM at FGFR3 enzyme (setting [1]), 10 to 30 nM on FGFR1 (setting [2]), less than 0.01 µM on FGFR2 (pre-incubated for 4 hours) and 0.03 to 0.2 µM against FGFR4 (pre-incubated for 4 hours).
Turning to `COc1cc(OC)c(F)c(N2Cc3cnc(-c4cn(C)nc4C)cc3N(c3cnn(C4CC4)c3)C2=O)c1F` [Example 130, 1-(1-cyclopropyl-1H-pyrazol-4-yl)-3-(2,6-difluoro-3,5-dimethoxyphenyl)-7-(1,3-dimethyl-1H-pyrazol-4-yl)-3,4-dihydropyrido[4,3-d]pyrimidin-2(1H)-one], on FGFR3 enzyme (pre-incubated for 4 hours), the “FGFR1/FGFR3 IC50 ratio” value is greater than 5. The “FGFR4/FGFR3 IC50 ratio” value at FGFR3 enzyme (pre-incubated for 4 hours) is reported as greater than 5. The IC50 lay in the range of 0.01 to 0.03 µM at FGFR3 enzyme (setting [1]), 30 to 200 nM against FGFR1 (setting [2]), 0.01 to 0.03 µM at FGFR2 (pre-incubated for 4 hours) and 0.03 to 0.2 µM at FGFR4 (pre-incubated for 4 hours).
Turning to `CCn1cc(N2C(=O)N(c3c(F)c(OC)cc(OC)c3F)Cc3cnc(-c4cn(C)nc4C)cc32)cn1` [Example 131, 3-(2,6-difluoro-3,5-dimethoxyphenyl)-7-(1,3-dimethyl-1H-pyrazol-4-yl)-1-(1-ethyl-1H-pyrazol-4-yl)-3,4-dihydropyrido[4,3-d]pyrimidin-2(1H)-one], at FGFR3 enzyme (pre-incubated for 4 hours), the “FGFR1/FGFR3 IC50 ratio” value is given as greater than 3. Besides, the “FGFR4/FGFR3 IC50 ratio” value at FGFR3 enzyme (pre-incubated for 4 hours) is reported as greater than 10. The IC50 is 0.01 to 0.03 µM at FGFR3 enzyme (setting [1]), 30 to 200 nM on FGFR1 (setting [2]), 0.01 to 0.03 µM on FGFR2 (pre-incubated for 4 hours) and greater than 0.2 µM on FGFR4 (pre-incubated for 4 hours).

In general, IC50 refers to the concentration needed to halve the response being measured.
